The values that follow are results of earlier work, collected in patent US20090196919A1, “OXCARBAZEPINE DOSAGE FORMS” (priority 2004, published 2009).

On to `NC(=O)N1c2ccccc2CC(=O)c2ccccc21` [Oxcarbazepine, 10,11-dihydro-10-oxo-5H-dibenz[b,f]azepine-5-carboxamide], for which the solubility in water entry is given as “poor”.
